Patent US6566140B2, “Inhibition of coagulation in blood and blood products” (University of Vermont and State Agriculture College, priority 1998, dated 2003)
Several values for one entry are separate records, joined by “and”; a condition that tells them apart may be missing. Equal values may be shown once. Entries after “also recorded” stand apart in the source; their conditions may differ.

Key:
[1] = system: tissue factor initiated clotting in whole blood; experiment: tissue factor dependent clotting assay in minimally altered whole blood, contact pathway suppressed with CTI, Hemochron ACT instrument; format: cell-based, human
Description: This assay uses an anti-coagulation sufficient amount of CTI to inhibit clotting in minimally altered whole blood. The assay is more particularly referred to herein as “tissue factor dependent clotting assay” or similar phrase. The assay is particularly useful for monitoring coagulation in whole or minimally altered whole blood. As an example, the assay is especially useful as a novel bedside tool that permits improved therapuetic assessment including standard antithrombotic and antiplatelet therapies. The assay should also facilitate improved dose selection, titration and monitoring of multicomponent antithrombotic, antiplatelet, and fibrinolytic treatment.
Blood samples were obtained from healthy individuals and the contact pathway of coagulation was inhibited with corn trypsin inhibitor(a specific factor XIIa inhibitor without effect on other coagulation factors.). Clotting was initiated with relipidated tissue factor and detected with a Hemochron ACT instrument. Results were reproducible with samples from 20 healthy volunteers (mean time to clot=118±9 seconds). In other studies, blood was exposed to pharmacologic concentrations of antithrombotic and antiplatelet agents in vitro. […] Additive effects of antiplatelet agents were readily detectable in contrast to the case with aPTT assays. Thus, addition of 3 μg/ml abciximab to 0.1 anti-IIa/Xa U/ml of heparin and to 0.4 anti-Xa U/ml of enoxaparin prolonged the times to clot by 62 and 52 seconds, respectively (p<0.05 for each).
Blood was harvested between 0900 and 1200 hours. Phlebotomies were performed with 19 gauge butterfly needles and a two syringe technique with which the first three ml of blood were discarded. Blood samples were drawn into syringes containing corn trypsin inhibitor (CTI, Enzyme Research Laboratories, South Bend, Ind.) alone in concentrations ranging from 32 to 300 μg/ml or in combination with selected pharmacologic concentrations of heparin (0.1, 0.25 and 0.4 anti-IIa/Xa U/ml), enoxaparin (0.4 and 0.8 anti-Xa U/ml, Rhone-Poulenc Rorer), hirudin ([…], Sigma), recombinant tick anticoagulant peptide (rTAP, 0.4 anti-Xa U/ml, kindly provided by Corvass International), or abciximab (3 μg/ml, Eli Lilly). The concentrations of heparin, enoxaparin and abciximab were chosen to simulate those attained in clinical practice and equivalent anti-IIa and anti-Xa concentrations of hirudin and rTAP -were chosen. Final volumes were 1 part anticoagulant to 9 parts blood.
A 400 μl aliguot of blood was added to a K-resin ACT tube kindly provided by International Technidyne without the glass beads traditionally used to activate the contact pathway. Lipidated tissue factor (1-60 pM, American Diagnostica, Greenwich, Conn.) was added to K-resin tubes before addition of blood.
The K-resin tubes containing tissue factor and blood were placed promptly in a Hemochron ACT instrument. The time to clot was detected by the displacement of a dependent magnet within the rotating tube when fibrin strands formed. The blood was maintained at 37° C. throughout the assay procedure.

[2] = system: aPTT; experiment: aPTT of blood exposed to antithrombotic and antiplatelet agents; format: biochemical, human
Description: Blood was harvested between 0900 and 1200 hours. Phlebotomies were performed with 19 gauge butterfly needles and a two syringe technique with which the first three ml of blood were discarded. […] The concentrations of heparin, enoxaparin and abciximab were chosen to simulate those attained in clinical practice and equivalent anti-IIa and anti-Xa concentrations of hirudin and rTAP -were chosen. Final volumes were 1 part anticoagulant to 9 parts blood.

[3] = abciximab 3 μg/ml added to 0.1 anti-IIa/Xa U/ml heparin
[4] = abciximab 3 μg/ml added to 0.4 anti-Xa U/ml enoxaparin

enoxaparin
effect on the time to clot ([1]; enoxaparin 0.4 and 0.8 anti-Xa U/ml, 200 μg/ml CTI, 20 pM tissue factor): increased with increasing concentrations | effect on the time to clot ([1]; enoxaparin 0.4 and 0.8 anti-Xa U/ml, 200 μg/ml CTI, 20 pM tissue factor, listed as Enoxaparin): prolonged | increase of the time to clot ([1]; enoxaparin 0.4 anti-Xa U/ml): 46 s | effect on the aPTT ([2]; enoxaparin 0.4 and 0.8 anti-Xa U/ml): increased with increasing concentrations | effect on the aPTT ([2]; enoxaparin 0.4 and 0.8 anti-Xa U/ml, listed as Enoxaparin): prolonged | increase of the aPTT ([2]; enoxaparin 0.4 anti-Xa U/ml): 15 s

hirudin
effect on the time to clot ([1]; hirudin 0.4 and 0.8 anti-IIa U/ml, 200 μg/ml CTI, 20 pM tissue factor): prolonged the time to clot at each concentration tested | prolongation of the time to clot ([1]; hirudin 0.4 anti-IIa U/ml, 200 μg/ml CTI, tissue factor initiated): 21 s | prolongation of the time to clot ([1]; hirudin 0.8 U/ml, 200 μg/ml CTI, 20 pM tissue factor): 37 s | prolongation of the aPTT ([2]; hirudin 0.4 anti-IIa U/ml): 3 s | effect on the aPTT ([2]; hirudin 0.4 anti-IIa U/ml (versus 0.8 U/ml)): significantly prolonged only with the higher concentration; also recorded: detected only with 0.8 U/ml; also recorded: not affected | effect on the aPTT ([2]; hirudin 0.4 anti-IIa U/ml (versus 0.8 U/ml), listed as Hirudin): without prolonging the aPTT | prolongation of the aPTT ([2]; hirudin 0.8 U/ml): 16 s

heparin
increase of the time to clot ([1]; heparin 0.1 anti-IIa/Xa U/ml): 41 s | effect on the time to clot ([1]; heparin 0.25 and 0.4 anti-IIa/Xa U/ml, 200 μg/ml CTI, 20 pM tissue factor): prolonged with increasing concentrations | effect on the time to clot ([1]; heparin 0.25 and 0.4 anti-IIa/Xa U/ml, 200 μg/ml CTI, 20 pM tissue factor, listed as Heparin): prolonged | increase of the aPTT ([2]; heparin 0.1 anti-IIa/Xa U/ml): 34 s | effect on the aPTT ([2]; heparin 0.25 and 0.4 anti-IIa/Xa U/ml): prolonged with increasing concentrations | effect on the aPTT ([2]; heparin 0.25 and 0.4 anti-IIa/Xa U/ml, listed as Heparin): prolonged

rTAP: recombinant tick anticoagulant peptide, a specific inhibitor of factor Xa (YNRLCIKPRDWIDECDSNEGGERAYFRNGKGGCDSFWICPEDHTGADYYSSYRDCFNACI; UniProt P17726 1-60, looked up)
effect on the time to clot ([1]; rTAP 0.4 anti-Xa U/ml, 200 μg/ml CTI, 20 pM tissue factor): prolonged the time to clot | prolongation of the time to clot ([1]; rTAP 0.4 anti-Xa U/ml, 200 μg/ml CTI, tissue factor initiated): 229 s | effect on the aPTT ([2]; rTAP 0.4 anti-Xa U/ml): no effect; also recorded: not affected | effect on the aPTT ([2]; rTAP 0.4 anti-Xa U/ml, listed as tick anticoagulant peptide): without prolonging the aPTT | prolongation of the aPTT ([2]; tick anticoagulant peptide 0.4 anti-Xa U/ml): 3 s

B1: lipidated tissue factor: lipidated tissue factor (American Diagnostica), initiator of clotting (protein, UniProt P13726 33-295, looked up)
Tissue factor: SGTTNTVAAYNLTWKSTNFKTILEWEPKPVNQVYTVQISTKSGDWKSKCFYTTDTECDLTDEIVKDVKQTYLARVFSYPAGNVESTGSAGEPLYENSPEFTPYLETNLGQPTIQSFEQVGTKVNVTVEDERTLVRRNNTFLSLRDVFGKDLIYTLYYWKSSSSGKKTAKTNTNEFLIDVDKGENYCFSVQAVIPSRTVNRKSTDSPVECMGQEKGEFREIFYIIGAVVFVVIILVIILAISLHKCRKAGVGQSWKENSPLNVS
modifications: lipidated
notes: lipidated tissue factor (American Diagnostica), initiator of clotting
effect on the time to clot ([1]; lipidated tissue factor 1.0 to 60 pM, 12 subjects): concentration dependent decrease in the time to clot

B2: abciximab (antibody, chains of the INN, looked up, V domains shown)
VH: EVQLQQSGTVLARPGASVKMSCEASGYTFTNYWMHWVKQRPGQGLEWIGAIYPGNSDTSYIQKFKGKAKLTAVTSTTSVYMELSSLTNEDSAVYYCTLYDGYYVFAYWGQGTLVTVSA
VL: EIVLTQSPVTLSVTPGDSVSLSCRASRDISNNLHWFQQTSHESPRLLIKYASQSMSGIPSRFSGSGSGTDFTLSINSVETEDFGMYFCQQTNSWPYTFGGGTKLEIK
modifications: Fab
notes: commercially available monoclonal antibody against platelet glycoprotein gpIIb-IIIa
effect of the combination on the time to clot ([1]; 0.1 anti-IIa U/ml heparin with 3 μg/ml abciximab, 200 μg/ml CTI, 20 pM tissue factor): prolonged the time to clot compared with heparin alone | effect of the combination on the time to clot ([1]; 0.4 anti-Xa U/ml enoxaparin with 3 μg/ml abciximab, 200 μg/ml CTI, 20 pM tissue factor): prolonged the time to clot compared with enoxaparin alone | further prolongation of the time to clot compared with heparin alone [1, 3]: 62 s and 61 s | further prolongation of the time to clot compared with enoxaparin alone [1, 4]: 52 s | prolongation of the time to clot by the combination ([1]; abciximab 3 μg/ml and heparin in combination): 102 s | effect on the aPTT of adding abciximab to heparin [2, 3]: not affected; also recorded: did not prolong further the aPTT; also recorded: did not affect the aPTT | effect on the aPTT of adding abciximab to enoxaparin [2, 4]: not affected; also recorded: did not prolong further the aPTT
